Where no end group is shown, it is not given here. Where only a bound is given, the exact number is not on record here.

This is an account of results in PMC8692891 (Frontiers in Immunology, 2021).

The subject of data set [1] is HIV-1 ADA. As to the kind of experiment: MDLCs-mediated HIV-1 trans-infection to CD4+ T-cells. Conditions: for Inhibition of MDLCs-mediated HIV-1 trans-infection (in words): p24 ELISA or GFP-reporter T-cells by flow cytometry. The class given is cell-based. Here is the method:
(§1) For langerin surface expression, MDLCs were washed and stained for 20 min on ice in a final volume of 50 µl PBS with a phycoerythrin (PE)-conjugated mouse monoclonal Ab against human langerin (clone DCGM4, Beckman Coulter), or matched isotype control. For HIV-1 trans-infection, MDLCs were washed and pulsed with HIV-1 ADA (1ng p24 corresponding to multiplicity of infection of 0.2) for 4 h. MDLCs were next incubated with autologous CD4+ T-cells or with green fluorescent protein (GFP)-reporter T-cells, and HIV-1 replication was measured in the co-culture supernatants using p24 ELISA (Fujirebio) or by evaluating GFP fluorescent by flow cytometry, as we described ([13]–[15]). Fluorescent profiles were acquired using a Guava easyCite and analyzed with the InCyte software (Merck-Millipore).
(§2) Data was analyzed using Prism software (GraphPad). Concentration-response curves were analyzed with the [log(agonist) vs. response (three parameters)] model for langrin upregulation and the [log(inhibitor) vs. normalized response − variable slope] model for HIV-1 trans-infection inhibition. The -log molar concentrations of agonists generating 50% response represented potencies (i.e., pEC50 and pIC50). Statistical significance was analyzed with the two-tailed Student’s t-test.
The cells were then pulsed with HIV-1 ADA for 4 h, washed, and incubated for 7 days with autologous CD4+ T-cells (A–C) or 3 days with HIV-1 GFP-reporter T-cells (D). HIV-1 trans-infection and replication in T-cells was evaluated by p24 ELISA in the co-culture supernatants or by GFP expression and flow cytometry.
A general note: In an ELISA, binding on a coated surface is turned into a signal by an enzyme label.

For data set [2], the system named is langerin surface expression in MDLCs. Kind of data set: Langerin surface expression in MDLCs (flow cytometry). Format: cell-based, human. As for the experimental part:
as §1, §2
The cells were then stained for surface langerin and examined by flow cytometry.
Background: In flow cytometry, cells or beads pass a laser one at a time.

Data set [3] concerns STAT4 expression in MDLCs. Kind of data set: STAT4 Western blot in MDLCs. Format: cell-based, human. Conditions: n = 4; for Total STAT4 expression: MDLCs treated 24 h, CGRP 0.1 μM, SAX 0.1 μM, CGRP1–8 10 μM, LPS 10 μg/ml, normalized to beta actin. Here is the method: For PBMCs, cells (2 × 10^6/sample) were activated with PHA (5 μg/ml) + IL2 (100 U/ml) for 48 h at 37°C, serum-starved overnight, and stimulated for 30 min at 37°C with either IL12 (10 ng/ml; R&D systems) or interferon alpha (IFNα, 5 × 10^4 U/ml; pbl Assay Science). For MDLCs, cells (2 × 10^6/sample) were re-suspended in complete RPMI medium without cytokines and rested overnight at 37°C. […] The cells were then washed and stimulated for 30 min at 37°C with combination of IL12 + IFNα at the concentrations indicated above. PBMCs/MDLCs were subsequently lysed for 30 min on ice with 100 μl lysis buffer [50 mM Tris buffer pH = 7.5, 150 mM NaCl, 2 mM EDTA, 1% Triton X100, 0.1% SDS, 1:100 dilutions of phosphatase inhibitors II/III and protease inhibitor cocktail (Sigma)], followed by three cycles of 10 s vortex and 10 min incubation on ice. Lysates were centrifuged for 10 min at 4°C/13,200 rpm, and supernatants were collected and stored at −80°C. […] Blocking was performed for 1 h at room temperature with blocking buffer (Tris-buffered saline (TBS), 0.5% Tween 20, and 0.5% dry milk). The blots were next incubated overnight at 4°C with commercial rabbit polyclonal Abs suitable for WB, directed against human STAT4 (Proteintech #13028-1AP, 0.5 μg/ml) or phosphorylated STAT4 (pSTAT4; R&D systems, #AF4319, 1 μg/ml), followed by 1:1,000 dilution of HRP-conjugated donkey-anti-rabbit IgG Ab (Southern Biotech) for 1 h at room temperature. Loading control was verified by incubation with goat polyclonal Ab to beta actin (abcam, 0.4 μg/ml), followed by 1:5,000 dilution of HRP-conjugated donkey-anti-goat IgG Ab (Promega). All Abs were diluted in blocking buffer, and pre-stained SDS-PAGE standard markers (ThermoFisher) were applied to determine molecular weights. Revelation was performed for 1–10 s with ECL-Prime chemiluminescence detection kit (Amersham). Images were acquired with the Fusion FX camera platform (Vilber Lournmat) and protein expression was quantified with ImageJ software (NIH).
(A, B) PHA/IL2-activated PBMCs were serum-starved overnight at 37°C, and left untreated (Un) or stimulated for 30 min with either IL12 or IFNα. […] (F) MDLCs were treated as described in panels (C, D) above, and further stimulated for 30 min with combination of IL12 + IFNα.
(In general: A western blot detects proteins with antibodies after separation by electrophoresis.)

Data set [4] has as its system HIV-1 (V29)-infected PBMCs. Kind of data set: HIV-1 infection of dermal T-cells in inner foreskin tissue explants ex-vivo. Format: cell-based. Conditions: explants pre-treated 24 h at 1 μM, inoculated 4 h, further three days incubation; flow cytometry; n = 4.
Description: For infection experiments, round (8 mm diameter) inner foreskin tissue pieces were placed in 24-well plates and incubated submerged for 24 h at 37°C with 1 ml complete RPMI medium, alone or supplemented with CGRP or SAX (1 μM, four explants per condition). The tissues were next washed, transferred to two-chamber transwell inserts (Sigma), and inoculated in a polarized manner for 4 h at 37°c with either non-infected or HIV-1 (V29)-infected PBMCs (in duplicates), as we described ([11], [12]).
Dermal cell suspensions were prepared following washing of the explants, additional incubation for three days at 37°C submerged in 1 ml fresh medium, and subsequent enzymatic digestion with collagenase/DNase as we described ([11], [12]). Pooled cells of each duplicate were surface stained as above using FITC-conjugated mouse-anti-human CD3 Ab (Pharmingen), fixed, permeabilized, and stained for 30 min at room temperature with 1:160 dilution of PE-conjugated mouse-anti-human Ab to HIV-1 p24 and core antigens (Beckman Coulter). Fluorescent profiles were recorded using a Guava easyCyte and InCyte software.
(D, E) Other explants were further incubated for additional three days and digested with collagenase/DNase. In panel (D), shown are representative flow cytometry dot plots of dermal cell suspensions double stained for surface CD3 and intracellular p24 and examined by flow cytometry. […]
For data set [5] the following is noted: cited from earlier work. From the text: However, CGRP-mediated vasodilation is potentially protective, at least during hypertension and cardiovascular complications ([5]).

Consider `NCCCC[C@H](NC(=O)[C@@H](Cc1cc(Br)c(O)c(Br)c1)NC(=O)N1CCC(N2Cc3ccccc3NC2=O)CC1)C(=O)N1CCN(c2ccncc2)CC1` [BIBN4096], for which, in data set [1] (BIBN4096 1 μM added 15 min before agonists (0.1 μM), n = 3), the “Effect of antagonist on CGRP- and SAX-mediated inhibition of HIV-1 trans-infection” value is “completely abrogated”. The “Effect of antagonist on CGRP- and SAX-mediated increase in langerin expression” value in data set [2] (BIBN4096 1 μM added 15 min before agonists (0.1 μM), n = 4) is reported as “completely abrogated”. Also, the “Effect of antagonist on CGRP- and SAX-mediated increase in STAT4” value in data set [3] (BIBN4096 1 μM added 15 min before agonists (0.1 μM)) is given as “abrogated”.
Consider “CGRP1–8: previously described CGRP N-terminal fragment (ACDTATCV; not fully specified (bridges); ends and bridges not checked; UniProt P06881 83-90, looked up, fragment)”, for which the “Inhibition of MDLCs-mediated HIV-1 trans-infection (in words)” value in data set [1] (MDLCs treated 24 h) is given as “lacks anti-HIV-1 inhibitory activity”. For the same compound, the “Increase in langerin surface expression (in words)” value in data set [2] (MDLCs treated 24 h, flow cytometry) was “fails to increase”. Further, the “Total STAT4 expression” value in data set [3] is on record as “failed to increase”.
On to lipopolysaccharide [LPS], for which, in data set [3], the “Total STAT4 expression” value is recorded as “significantly increased”.
With “serinyl-CGRP2-37-amide with an albumin binding fatty acid moiety in the N-terminus [SAX]”, the “pIC50 [95% CI], inhibition of MDLCs-mediated HIV-1 trans-infection” value in data set [1] (MDLCs treated 24 h, pulsed with HIV-1 ADA 4 h, 7 days with autologous CD4+ T-cells, p24 ELISA, -log molar, n = 5) was 8.9 [9.9–7.9]. For the same compound, in data set [1] (MDLCs treated 24 h), the “Inhibition of MDLCs-mediated HIV-1 trans-infection (in words)” value is “significantly inhibited”. Also, the “Fold lower potency of SAX than CGRP” value in data set [1] (blocking HIV-1 trans-infection in MDLCs) is > 10 fold. For the same compound, the “pEC50 [95% CI], increase in langerin surface expression” value in data set [2] (MDLCs treated 24 h, flow cytometry, -log molar, n = 5) is 8.3 [9.6–6.5]. The “Total STAT4 expression” value in data set [3] is recorded as “significantly increased”. The “Phosphorylation of induced STAT4 (pSTAT4) upon cytokine stimulation” value in data set [3] (after 24 h agonist treatment, 30 min IL12 + IFNα) is given as “could be readily phosphorylated”. The “HIV-1 infection of dermal T-cells (p24+CD3+)” value in data set [4] was “undetectable levels”. Also, the “Half-life compared to CGRP” value in data set [5] is recorded as “longer”.
